The text below walks through data of patent US12297293B2, “Peptide compounds targeting PD-1 receptor as well as preparation and applications thereof” (NANTONG UNIVERSITY, priority 2021, dated 2025).

In one test the test system is DRG neurons. The test can be described thus: DRG neuronal calcium imaging experiment. The settings on record: DRG neurons pretreated with 1 nM; high K+ solution; Fluo-4/AM, laser confocal. Format: cell-based, ICR mice. The source says:
The inhibitory effect of compounds 1-5 on pain signaling was characterized by DRG neuronal calcium imaging, comprising the following steps:
performing acute isolation on 3-week-old female ICR mice, and extracting DRG in a sterile bench; lysing sequentially by collagenase A and trypsin; terminating trypsin lysis with a complete medium containing serum; centrifuging at 800r, discarding supernatant, and adding Neurobasal medium (containing 2% B27, Clutanine 1%, and 1% penicillin-streptomycin double antibody solution) and thoroughly mixing; then culturing in pre-prepared Petri dishes lined with PDL for 48 h; labeling DRG neurons with Flou-4/AM prior to the experiment, and pre-treating with different doses of the compounds 1-5/equivalent volume of HBSS before stimulating the DRG neurons with high K+ solution; and then detecting changes of intracellular free calcium ion concentration of DRG neurons under laser confocal.

Test [1] relates to formalin-induced inflammatory pain. The test can be described thus: Formalin-induced inflammatory pain test. Format: in vivo, ICR male mice. The method, then: According to the present invention, placing ICR male mice in a weight range of 25-30 g in an observation room for 15 min, and injecting intrathecally with different doses of the compound 4 (5 nmol, 10 nmol, 30 nmol) or saline; after 5 min, injecting subcutaneously with 5% formalin (20 μl) through the plantar surface of the foot, and then immediately sending to the observation room; counting an accumulated time of pain behaviors (licking, biting, and flinging the injected foot) during the time period of 0-10 min and 10-45 min, respectively.
0-10 min after formalin injection is a phase I, which is mainly triggered by direct activation of injurious neurons; and 10-35 min is phase II, which is mainly triggered by formalin-induced inflammatory response.

For test [2], the system named is acetic acid-induced visceral pain. Put plainly: Acetic acid-induced visceral pain (writhing) test. Format: in vivo, ICR male mice. The protocol: According to the present invention, placing ICR male mice in a weight range of 25-30 g in an observation room for 15 min, and injecting intrathecally with different doses of the compound 4 (5 nmol, 10 nmol, 30 nmol) or saline; after 5 min, injecting intraperitoneally with 0.6% glacial acetic acid solution (10 mL/kg), and then sending to the observation room; counting the number of body writhing within 20 min.
The experimental results are shown in FIG. 4, the number of writhing in mice decreased with the increase of the administered dose. […] Intrathecally injected at a dose of 30 nmol, the compound 4 inhibited the writhing behavior of mice by 63%.

Ends that are not written are not given here.

As to SYGGADYKR [compound 4], in the test on DRG neurons, the “inhibitory effect on the increase of intracellular Ca2+ concentration induced by high K+” value was “significant inhibitory effect”. The “pain behavior (licking, biting and flinging the injected foot) in both phases” value in test [1] (intrathecal 5, 10, 30 nmol, 5% formalin 20 μl plantar, phase I and phase II, vs control group) was “significantly shortened”. In addition, the “ED50 (median effective dose) for pain in phase II” value in test [1] (intrathecal injection, formalin phase II) is recorded as 6.28 (5.34-7.39) nmol. For the same sequence, the “number of abdominal writhing” value in test [2] (intrathecal 5, 10, 30 nmol, 0.6% acetic acid i.p. 10 mL/kg, writhing within 20 min) is reported as “significantly reduce the number of abdominal writhing in mice in a dose-dependent manner”. The “inhibition of writhing behavior” value in test [2] (intrathecal dose of 30 nmol) is on record as 63%. Also, the ED50 in test [2] (intrathecal injection, acetic acid writhing) is listed as 13.5 (11.88-15.34) nmol.
